Measured values: patent publication US9474790B2, “Stable, protracted GLP-1/glucagon receptor co-agonists for medical use” (Novo Nordisk A/S, priority 2013, dated 2016)
Numbered stars: 1 amine (or outer) side, 2 acyl side, 3 side chain; on linkers, the order of the positions; unused ones are H or OH. Bridge positions count the residues as written; N and C are the ends. Square brackets hold non-standard residues; d marks the D form. Side chains are listed from the residue outwards. Peptide text beside a SMILES is read from it. I, II: the chains in the order shown. * marks the point of attachment. C18 diacid = O=C(O)CCCCCCCCCCCCCCCCC(=O)*; γGlu = O=C(O)[C@H](CCC(=O)[*:2])N[*:1]; AEEA = NCCOCCOCC(=O)O; Aib = CC(C)(N)C(=O)O

Target: T1, human glucagon receptor (Homo sapiens, UniProt P47871)
T1 construct: expressed in transfected cells; host or cells: BHK cells (parent BHK570, CRE luciferase clone BHK/KZ10-20-48), clone pLJ6'-4-25
Test: Glucagon receptor potency, CRE luciferase reporter gene assay in BHK cells
Format: cell-based
Conditions: BHK cells expressing human glucagon receptor, read-out: EC50 GlucR
Procedure: The purpose of this example was to test the potency, of the glucagon derivatives of the invention, in vitro. The in vitro potency is the measure of human GLP-1 receptor or glucagon receptor activation, respectively, in a whole cell assay.
In vitro potency was determined by measuring the response of human GLP-1 or glucagon receptor, respectively, in a reporter gene assay. The assay was performed in a stably transfected BHK cell line that expresses either the human GLP-1 receptor or the human glucagon receptor and contains the DNA for the cAMP response element (CRE) coupled to a promoter and the gene for firefly luciferase (CRE luciferase). […] When assay incubation was completed, the luciferase substrate (luciferin) was added and the enzyme converted luciferin to oxyluciferin and produces bioluminescence. The luminescence was measured as the readout for the assay.
The cells used in this assay (clone pLJ6′-4-25) were BHK cells with BHK570 as a parent cell line expressing the CRE luciferase gene (clone BHK/KZ10-20-48) and were established by further transfection with the human glucagon receptor (clone pLJ6′ in pHZ-1 vector).
The cells were cultured at 5% CO2 in DMEM medium with 10% FBS, 1×GlutaMAX, 1 mg/ml G418, 240 nM MTX (methotrexate) and 1% pen/strep (penicillin/streptomycin). They were aliquoted and stored in liquid nitrogen. Before each assay, an aliquot was taken up and washed three times in PBS before being suspended at the desired concentration in assay medium. For 96-well plates the suspension was made to give a final concentration of 5×10EE3 cells/well.
The following chemicals were used in the assay: Pluronic F-68 (10%) (Gibco 2404), ovalbumin (Sigma A5503), DMEM w/o phenol red (Gibco 11880-028), 1 M Hepes (Gibco 15630), Glutamax 100× (Gibco 35050) and steadylite plus (PerkinElmer 6016757).
Assay Medium consisted of DMEM w/o phenol red, 10 mM Hepes, 1× GlutaMAX, 2% Ovalbumin and 0.2% Pluronic F-68.
Cell stocks were thawed in a 37° C. water bath. Cells were washed three times in PBS. The cells were counted and adjusted to 5×10EE3 cells/50 μl (1×10EE5 cells/ml) in Assay Medium. A 50 μl aliquot of cells was transferred to each well in the assay plate.
Stocks of the test compounds and reference compounds were diluted to a concentration of […] in Assay Medium. Compounds were diluted 10-fold to give the following concentrations: 2×10EE-6 M, 2×10EE-7 M, 2×10EE-8 M; 2×10EE-9 M, 2×10EE-10 M, 2×10EE-11 M, 2×10EE-12 M and 2×10EE-13 M. For each compound a blank assay medium control was also included.
A 50 μl aliquot of compound or blank was transferred from the dilution plate to the assay plate. Compounds were tested at the following final concentrations: 1×10EE-6 M, 1×10EE-7 M, 1×10EE-8 M; 1×10EE-9 M, 1×10EE-10 M, 1×10EE-11 M and 1×10EE-12 M and 1×10EE-13 M.
The assay plate was incubated for 3 h in a 5% CO2 incubator at 37° C. The assay plate was removed from the incubator and allowed to stand at room temperature for 15 min. A 100 μl aliquot of steadylite plus reagent was added to each well of the assay plate (reagent is light sensitive). Each assay plate was covered with aluminum foil to protect it from light and shaken for 30 min at room temperature. Each assay plate was read in a Perkin Elmer TopCount NXT instrument.
The data from the TopCount instrument was transferred to GraphPad Prism software. The software performed a non-linear regression (log(agonist) vs response-Variable slope (four parameter)). EC50 values were calculated by the software and reported in pM.

T1 sequence (P47871 26-477): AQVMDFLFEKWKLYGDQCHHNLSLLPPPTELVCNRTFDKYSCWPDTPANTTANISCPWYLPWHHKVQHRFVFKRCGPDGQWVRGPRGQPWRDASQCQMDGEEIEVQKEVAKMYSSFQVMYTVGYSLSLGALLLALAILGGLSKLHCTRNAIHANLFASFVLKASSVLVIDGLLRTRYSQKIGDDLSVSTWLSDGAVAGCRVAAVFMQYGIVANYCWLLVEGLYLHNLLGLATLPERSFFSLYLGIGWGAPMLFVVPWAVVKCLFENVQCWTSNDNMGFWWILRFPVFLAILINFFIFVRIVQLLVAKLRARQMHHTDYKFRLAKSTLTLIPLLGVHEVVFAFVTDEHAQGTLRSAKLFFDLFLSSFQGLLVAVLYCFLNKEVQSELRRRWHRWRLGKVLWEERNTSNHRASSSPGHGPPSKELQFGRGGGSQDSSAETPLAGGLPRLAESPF

| Compound | EC50 [pM] |
| --- | --- |
| CC(C)C[C@H](NC(=O)[C@H](Cc1ccc(O)cc1)NC(=O)[C@H](CCCCN)NC(=O)[C@H](CO)NC(=O)[C@H](CC(C)C)NC(=O)[C@H](CC(=O)O)NC(=O)[C@H](CO)NC(=O)[C@@H](NC(=O)[C@H](Cc1ccccc1)NC(=O)[C@@H](NC(=O)CNC(=O)[C@H](CCC(N)=O)NC(=O)C(C)(C)NC(=O)[C@@H](N)Cc1c[nH]cn1)[C@@H](C)O)[C@@H](C)O)C(=O)N[C@@H](CCC(=O)O)C(=O)N[C@@H](CO)C(=O)N[C@@H](CCCNC(=N)N)C(=O)N[C@@H](CCCNC(=N)N)C(=O)N[C@@H](C)C(=O)N[C@@H](CCCNC(=N)N)C(=O)N[C@@H](CCC(=O)O)C(=O)N[C@@H](Cc1ccccc1)C(=O)N[C@H](C(=O)N[C@@H](CCC(N)=O)C(=O)N[C@@H](Cc1c[nH]c2ccccc12)C(=O)N[C@@H](CC(C)C)C(=O)N[C@@H](CC(C)C)C(=O)N[C@@H](CCCCNC(=O)CC[C@H](NC(=O)CC[C@H](NC(=O)COCCOCCNC(=O)COCCOCCNC(=O)CC[C@H](NC(=O)CCCCCCCCCCCCCCCCC(=O)O)C(=O)O)C(=O)O)C(=O)O)C(=O)N[C@H](C(N)=O)[C@@H](C)O)C(C)C [Example 23, N^ε28-[(4S)-4-carboxy-4-[[(4S)-4-carboxy-4-[[2-[2-[2-[[2-[2-[2-[[(4S)-4-carboxy-4-(17-carboxyheptadecanoylamino)butanoyl]amino]ethoxy]ethoxy]acetyl]amino]ethoxy]ethoxy]acetyl]amino]butanoyl]amino]butanoyl]-[Aib2,Leu10,Glu15,Arg20,Glu21,Leu27,Lys28]-Glucagon amide] (H-H[Aib]QGTFTSDLSKYLESRRAREFVQWLLK([γGlu-γGlu-AEEA-AEEA-γGlu-C18 diacid])T-NH2; N-terminus assumed) | 77.3 |
| CC(C)C[C@H](NC(=O)[C@H](Cc1ccc(O)cc1)NC(=O)[C@H](CCCCN)NC(=O)[C@H](CO)NC(=O)[C@H](CC(C)C)NC(=O)[C@H](CC(=O)O)NC(=O)[C@H](CO)NC(=O)[C@@H](NC(=O)[C@H](Cc1ccccc1)NC(=O)[C@@H](NC(=O)CNC(=O)[C@H](CCC(N)=O)NC(=O)C(C)(C)NC(=O)[C@@H](N)Cc1c[nH]cn1)[C@@H](C)O)[C@@H](C)O)C(=O)N[C@@H](CCC(=O)O)C(=O)N[C@@H](CO)C(=O)N[C@@H](CCCCN)C(=O)N[C@@H](CCCNC(=N)N)C(=O)N[C@@H](C)C(=O)N[C@@H](CCCNC(=N)N)C(=O)N[C@@H](CCC(=O)O)C(=O)N[C@@H](Cc1ccccc1)C(=O)N[C@H](C(=O)N[C@@H](CCC(N)=O)C(=O)N[C@@H](Cc1c[nH]c2ccccc12)C(=O)N[C@@H](CC(C)C)C(=O)N[C@@H](CC(C)C)C(=O)N[C@@H](CCCCNC(=O)CNC(=O)[C@H](CO)NC(=O)[C@H](CCC(=O)O)NC(=O)CNC(=O)[C@H](CO)NC(=O)CC[C@H](NC(=O)CC[C@H](NC(=O)CCCCCCCCCCCCCCCCC(=O)O)C(=O)O)C(=O)O)C(=O)N[C@H](C(N)=O)[C@@H](C)O)C(C)C [Example 25, N^ε28-[2-[[(2S)-2-[[(2S)-4-carboxy-2-[[2-[[(2S)-2-[[(4S)-4-carboxy-4-[[(4S)-4-carboxy-4-(17-carboxyheptadecanoylamino)butanoyl]amino]butanoyl]amino]-3-hydroxypropanoyl]amino]acetyl]amino]butanoyl]amino]-3-hydroxypropanoyl]amino]acetyl]-[Aib2,Leu10,Glu15,Lys17,Arg20,Glu21,Leu27,Lys28]-Glucagon amide] (I: H-H[Aib]QGTFTSDLSKYLESKRAREFVQWLLKT-NH2 / II: {C18 diacid-γGlu-γGlu}-SGESG; amide I:28-II:C; N-terminus assumed) | 44.7 |
| CC(C)C[C@H](NC(=O)[C@H](Cc1c[nH]c2ccccc12)NC(=O)[C@H](C)NC(=O)[C@@H](NC(=O)[C@H](Cc1ccccc1)NC(=O)[C@H](CCC(=O)O)NC(=O)[C@H](CCCNC(=N)N)NC(=O)[C@H](C)NC(=O)[C@H](CCCNC(=N)N)NC(=O)[C@H](CCCNC(=N)N)NC(=O)[C@H](CO)NC(=O)[C@H](CCC(=O)O)NC(=O)[C@H](CC(C)C)NC(=O)[C@H](Cc1ccc(O)cc1)NC(=O)[C@H](CCCCN)NC(=O)[C@H](CO)NC(=O)[C@H](CC(C)C)NC(=O)[C@H](CC(=O)O)NC(=O)[C@H](CO)NC(=O)[C@@H](NC(=O)[C@H](Cc1ccccc1)NC(=O)[C@@H](NC(=O)CNC(=O)[C@H](Cc1c[nH]cn1)NC(=O)C(C)(C)NC(=O)[C@@H](N)Cc1c[nH]cn1)[C@@H](C)O)[C@@H](C)O)C(C)C)C(=O)N[C@@H](CC(C)C)C(=O)N[C@@H](CCCCNC(=O)CC[C@H](NC(=O)COCCOCCNC(=O)COCCOCCNC(=O)CC[C@H](NC(=O)CC[C@H](NC(=O)CCCCCCCCCCCCCCCCC(=O)O)C(=O)O)C(=O)O)C(=O)O)C(=O)N[C@H](C(N)=O)[C@@H](C)O [Example 31, N^ε28-[(4S)-4-carboxy-4-[[2-[2-[2-[[2-[2-[2-[[(4S)-4-carboxy-4-[[(4S)-4-carboxy-4-(17-carboxyheptadecanoylamino)butanoyl]amino]butanoyl]amino]ethoxy]ethoxy]acetyl]amino]ethoxy]ethoxy]acetyl]amino]butanoyl]-[Aib2,His3,Leu10,Glu15,Arg20,Glu21,Ala24,Leu27, Lys28]-Glucagon amide] (H-H[Aib]HGTFTSDLSKYLESRRAREFVAWLLK([γGlu-AEEA-AEEA-γGlu-γGlu-C18 diacid])T-NH2; N-terminus assumed) | 2.9 |
| CC(C)C[C@H](NC(=O)[C@H](Cc1ccc(O)cc1)NC(=O)[C@H](CCCCN)NC(=O)[C@H](CO)NC(=O)[C@H](CC(C)C)NC(=O)[C@H](CC(=O)O)NC(=O)[C@H](CO)NC(=O)[C@@H](NC(=O)[C@H](Cc1ccccc1)NC(=O)[C@@H](NC(=O)CNC(=O)[C@H](Cc1c[nH]cn1)NC(=O)C(C)(C)NC(=O)[C@@H](N)Cc1c[nH]cn1)[C@@H](C)O)[C@@H](C)O)C(=O)N[C@@H](CCC(=O)O)C(=O)N[C@@H](CO)C(=O)N[C@@H](CCCCN)C(=O)N[C@@H](CCCNC(=N)N)C(=O)N[C@@H](C)C(=O)N[C@@H](CCCNC(=N)N)C(=O)N[C@@H](CCC(=O)O)C(=O)N[C@@H](Cc1ccccc1)C(=O)N[C@H](C(=O)N[C@@H](CCC(N)=O)C(=O)N[C@@H](Cc1c[nH]c2ccccc12)C(=O)N[C@@H](CC(C)C)C(=O)N[C@@H](CC(C)C)C(=O)N[C@@H](CCCCNC(=O)CC[C@H](NC(=O)CC[C@H](NC(=O)CC[C@H](NC(=O)CCCCCCCCCCCCCCCCC(=O)O)C(=O)O)C(=O)O)C(=O)O)C(=O)N[C@H](C(N)=O)[C@@H](C)O)C(C)C [Example 34, N^ε28-[(4S)-4-carboxy-4-[[(4S)-4-carboxy-4-[[(4S)-4-carboxy-4-(17-carboxyheptadecanoylamino)butanoyl]amino]butanoyl]amino]butanoyl]-[Aib2,His3,Leu10,Glu15,Lys17,Arg20,Glu21,Leu27,Lys28]-Glucagon amide] (H-H[Aib]HGTFTSDLSKYLESKRAREFVQWLLK([γGlu-γGlu-γGlu-C18 diacid])T-NH2; N-terminus assumed) | 2.9 |
